Assay results taken from ChEMBL document CHEMBL6071166, “Maduraflavacins A-E, Unusual Phenyl Polyene Metabolites Produced by a Rare Marine-Derived Actinomadura sp” (2024).
Calls of active or inactive are those of the source. The calls are words filed in the database; no cut-off is given here.

Assays:
[1] = tested on: Micrococcus luteus; assay: Antibacterial activity against Micrococcus luteus assessed as inhibition zone at 0.5 mg/ml by agar diffusion assay; assay type: functional; conditions: read-out: IZ
[2] = tested on: Staphylococcus aureus; assay: Antibacterial activity against Staphylococcus aureus Sau 16339 assessed as inhibition zone at 0.5 mg/ml by agar diffusion assay; assay type: functional; conditions: read-out: IZ
[3] = tested on: Micrococcus luteus; assay: Antibacterial activity against Micrococcus luteus at 0.005 to 1 mg/ml by agar diffusion assay; assay type: functional, organism-based; conditions: dose 0.005-1 mg/ml
[4] = tested on: Staphylococcus aureus; assay: Antibacterial activity against Staphylococcus aureus Sau 16339 at 0.005 to 1 mg/ml by agar diffusion assay; assay type: functional, organism-based; conditions: dose 0.005-1 mg/ml

| SMILES | zone of inhibition at 500 µg/mL [1] [mm] | zone of inhibition at 500 µg/mL [2] [mm] | Activity [3] | Activity [4] |
| --- | --- | --- | --- | --- |
| CN(C)[C@@H]1C(O)=C(C(N)=O)C(=O)[C@@]2(O)C(O)=C3C(=O)c4c(O)cccc4[C@@](C)(O)[C@H]3C[C@@H]12 [TETRACYCLINE] | 15 | 12 | – | – |
| COC(=O)/C=C/C=C/C=C/C(C)=C/C=C/c1ccccc1 | – | – | inactive | inactive |
| CC(/C=C/C=C/C=C/C(=O)N[C@@H]1O[C@H](CO)[C@@H](O)[C@H](O[C@@H]2O[C@H](CO)[C@@H](O)[C@H](O[C@@H]3O[C@H](CO[C@@H]4O[C@H](CO)[C@@H](O)[C@H](O)[C@H]4O)[C@@H](O)[C@H](O)[C@H]3O)[C@H]2O)[C@H]1O)=C\C=C\c1ccccc1 | 3 | – | – | inactive |
| COC(=O)/C=C/C(C)=C/C=C/C(C)=C/C=C/c1ccccc1 | – | – | inactive | inactive |
| CC(/C=C/C=C(C)/C=C/C(=O)N[C@@H]1O[C@H](CO)[C@@H](O)[C@H](O[C@@H]2O[C@H](CO)[C@@H](O)[C@H](O[C@@H]3O[C@H](CO[C@@H]4O[C@H](CO)[C@@H](O)[C@H](O)[C@H]4O)[C@@H](O)[C@H](O)[C@H]3O)[C@H]2O)[C@H]1O)=C\C=C\c1ccccc1 | – | 4 | inactive | – |
| CC(/C=C/C(=O)N[C@@H]1O[C@H](CO)[C@@H](O)[C@H](O[C@@H]2O[C@H](CO)[C@@H](O)[C@H](O[C@@H]3O[C@H](CO[C@@H]4O[C@H](CO)[C@@H](O)[C@H](O)[C@H]4O)[C@@H](O)[C@H](O)[C@H]3O)[C@H]2O)[C@H]1O)=C\C=C\c1ccccc1 | – | – | inactive | inactive |
